From patent EP0277611A2, “Alkyl-substituted N-benzopyranyl lactames, process for their preparation, their use and pharmaceutical preparations on the basis of these compounds” (HOECHST AKTIENGESELLSCHAFT, priority 1987, dated 1988) come the findings set out here.

For one assay, the system named is Meerschweinchen-Ureteren. Kind of assay: Influence on KCl-induced rhythmic contractions of isolated guinea pig ureters in vitro. Format: cell-based. The note with it: 10⁻⁷ mol/l test substance, KCl 4 x 10⁻² mol/l, mean ± SEM; for inhibition at 0.1 µM: Cavia porcellus. The source says:
Beeinflussung der KCl-induzierten rhythmischen Kontraktionen an Meerschweinchen-Ureteren in vitro
Männliche Meerschweinchen wurden durch Nackenschlag und Entbluten aus den Carotiden getötet. Die beiden Ureteren wurden sofort entnommen, wobei der Bereich nahe dem Nierenkelch wegen der dort vorhandenen Schrittmacher-Aktivität gemieden wurde. 2 cm lange Stücke wurden zunächst in einer Petrischale, die Tyrode-Lösung enthielt, von Bindegewebe befreit und dann jeweils mit einer Vorspannung von 4,9 mN (=0,5 p) in ein 25 ml-Organbad (Fa. Rhema Labortechnik, Hofheim) gehängt. Das Organbad enthielt eine auf 37° gehaltene und mit Carbogen (95 % O₂, 5 % CO₂) durchperlte Tyrodelösung mit folgender Zusammensetzung (mmol/l): NaCl 137, KCl 2,68, MgSO₄ 1,05, CaCl₂ 1,8, NaH₂PO₄ 0,41, NaHCO₃ 11,9, Glucose 5,55. Die Kontraktionen wurden isometrisch gemessen unter Verwendung von Gould/Statham UC2 Gebern. Nach einer Äquiilibrierungszeit von mindestens 15 Minuten wurde KCl in das Organbad zugegeben, wobei eine Konzentration von 4 x 10⁻² mol/l erreicht wurde. Der Agonist wurde 2 Minuten im Bad belassen, wobei phasische Kontraktionen auftraten, ohne einen nennenswerten Anstieg der Grundspannung zu bewirken.
Danach wurde 1 Minute ausgespült, woraufhin die rhythmischen Kontraktionen sofort aufhörten. Nach einem zweiten Durchgang von Agonistgabe und Spülvorgang wurde die Prüfsubstanz (Benzopyran-Derivat) in das Organbad zugegeben (in Form einer Lösung in 0,1 ml Ethanol, die Endkonzentrationen betrugen in allen Fällen 10⁻⁷ mol/l) und eine Einwirkungszeit von einer Minute abgewartet, bevor KCl zugesetzt wurde. An den folgenden Spülvorgang schlossen sich zwei abschließende Agonistgabe/Spülgänge an. Von den jeweils zweiminütigen Perioden unter KCl-Einwirkung wurden folgende Parameter bestimmt: 1. mittlere Kontraktionskraft, 2. Frequenz der Kontraktionen und 3. Produkt aus mittlerer Kontraktionskraft und Frequenz. Ausschlußkriterien waren mittlere Kontraktionskräfte unter 4 mN oder Frequenzen unter 2/min bei mehr als einer der vier Perioden, bei denen nur der Agonist KCl im Bad vorhanden war. Ausgewertet wurde die prozentuale Hemmung unter Prüfsubstanz im Vergleich zum gemittelten Wert aus den beiden Vorläufen.
Neben dem arithmetischen Mittelwert (x) wurde der Standardfehler des Mittelwerts (SEM) errechnet.

The next assay relates to arteriellen Blutdruck. Kind of assay: Effect on arterial blood pressure in anaesthetised normotensive rats (ED25 from minima of blood pressure curves). The format is in vivo, männlichen Sprague-Dawley Ratten. The note with it: Rattus norvegicus, anaesthetised (Nembutal 70 mg/kg i.p.) normotensive rats, from minimum of blood pressure curve, read-out: ED₂₅. As to the method:
Der Einfluß der Verbindungen auf den arteriellen Blutdruck wurde an narkotisierten normotensiven männlichen Sprague-Dawley Ratten untersucht. Als Betäubungsmittel wurde Nembutal® in einer Dosis von 70 mg/kg i.p. verwendet. Die Blutdruckmessung erfolgte mittels Katheter in der Arteria carotis mit einem Druckwandler (Statham P 23 Db). Für die i.v. Applikation wurden die Substanzen in Dimethylsulfoxid gelöst und mit Wasser verdünnt. Die Konzentration der Stammlösung war 1mg/ml, wobei die Lösung 15 % Dimethylsulfoxid enthielt. Anteile dieser Stammlösung wurden für die Injektion jeweils frisch mit Wasser verdünnt.
Es kamen Konzentrationen von 50 (100), 30 (30) und 10 (10) µg/ml für die i.v. Applikation, 100 (100), 50 (60) und 30 (30) µg/ml für die i.d. Applikation zur Anwendung. Die angegebenen Zahlen beziehen sich dabei auf das Experiment a), die in Klammern angegebenen Zahlen auf Experiment b).
Die Blutdruckmessung wurde nach 0; 0,2; 0,4; 1; 2; 3; 10; 15 und 30 min. nach der i.v. Applikation sowie nach 0; 1; 3; 5; 10; 15; 20; 30; 40; 50 und 60 min. nach der i.d. Applikation vorgenommen. Die ED₂₅ Werte wurden aus dem Minima der jeweiligen Blutdruckkurven bestimmt. • a) (±)-(3R*, 4S*, 5ʹS*)-6-Cyano-3,4-dihydro-2,2-dimethyl-4-(2ʹ-oxo-5ʹ-methyl-1ʹ-pyrrolidinyl)-2H-benzo[b]pyran-3-ol (Verbindung aus Beispiel 1): ED₂₅= 19 µg/kg (i.v.) ED₂₅=42 µg/kg (i.d.) • b) (±)-6-Cyano-3,4-dihydro-2,2-dimethyl-trans-4-(2-oxo-1-pyrrolidinyl-2H-benzo[b]pyran-3-ol (Beispiel aus J. Med. Chem. 1986, 29, 2194-2201) ED₂₅= 42 µg/kg (i.v.) ED₂₅= 82 µg/kg (i.d.)

The mark [1] stands for this setting: percent inhibition vs mean of the two pre-runs, 0.1 µM.
Where [2] appears, read: percent inhibition of product of mean contraction force and frequency, read-out: k·v [%].
The mark [3] stands for this setting: percent inhibition vs mean of the two pre-runs, read-out: Frequenz v [%].
[4] abbreviates: percent inhibition vs mean of the two pre-runs, read-out: mittlere Kontraktionskraft k [%].

Structures are written as SMILES. Like-named read-outs stand apart in the source and are kept apart here.

As to `C[C@@H]1CCC(=O)N1[C@H]1c2cc(C#N)ccc2OC(C)(C)[C@@H]1O` (racemic) [±)-(3R^*,4S^*,5'R^*)-6-Cyano-3,4-dihydro-2,2-dimethyl-4-(2'-] [(3R*, 4S*, 5ʹR*)-6-Cyano-3,4-dihydro-2,2-dimethyl-4-[2ʹ-oxo-5ʹ-methyl-1ʹ-pyrrolidinyl)-2H-benzo[b]pyran-3-ol], the “k·v [%]” value in the assay on Meerschweinchen-Ureteren (percent inhibition of product of mean contraction force and frequency, 0.1 µM) worked out at 96 ± 1%. In the assay on Meerschweinchen-Ureteren (setting [1]), the “Frequenz v [%]” value stood at 86 ± 4% and the “mittlere Kontraktionskraft k [%]” value came to 69 ± 11%.
In the case of `C[C@H]1CCC(=O)N1[C@H]1c2cc(C#N)ccc2OC(C)(C)[C@@H]1O` (racemic) [(3R*, 4S*, 5ʹS*)-6-Cyano-3,4-dihydro-2,2-dimethyl-4-[2ʹ-oxo-5ʹ-methyl-1ʹ-pyrrolidinyl]-2H-benzo[b]pyran-3-ol], the ED25 stood at 0.019 mg/kg in the assay on arteriellen Blutdruck (iv) and 0.042 mg/kg in the assay on arteriellen Blutdruck (i.d.).
Take `C[C@@H]1CCC(=O)N1[C@H]1c2cc(C#N)ccc2OC(C)(C)[C@@H]1O` [(-)-(3R, 4S, 5ʹR)-6-Cyano-3,4-dihydro-2,2-dimethyl-4-(2ʹ-oxo-5ʹ-methyl-1ʹ-pyrrolidinyl)-2H-benzo[b]pyran-3-ol]: the inhibition at 0.1 µM in the assay on Meerschweinchen-Ureteren (setting [2]) was 96 ± 2%; in the assay with Meerschweinchen-Ureteren (setting [3]) it was 89 ± 4%; in the assay on Meerschweinchen-Ureteren (setting [4]), 75 ± 8%.
As for `CC1(C)Oc2ccc(C#N)cc2C(N2CCCC2=O)C1O` (racemic) [(±)-6-Cyano-3,4-dihydro-2,2-dimethyl-trans-4-(2-oxo-1-pyrrolidinyl-2H-benzo[b]pyran-3-ol, reference compound], the ED25 in the assay on arteriellen Blutdruck (iv) came to 0.042 mg/kg; in the assay with arteriellen Blutdruck (i.d.), 0.082 mg/kg. Besides, the values for the inhibition at 0.1 µM in the assay on Meerschweinchen-Ureteren (setting [2]), in the assay with Meerschweinchen-Ureteren (setting [3]) and in the assay with Meerschweinchen-Ureteren (setting [4]) were 61 ± 7%, 58 ± 5% and 8 ± 8%, respectively.
